From paper PMC3608883 (Clinical Drug Investigation, 2013)
Where “and” joins values, the source holds several entries; their conditions need not be identical. Identical values can stand only once.

Legend:
[1] = Treatment-emergent adverse events; type: in vivo, human
[2] = Vital signs; type: in vivo, human; conditions: single treatment (LDX alone Arm A; VXR alone Arm B)
[3] = system: cytochrome P450 (CYP) isoenzyme; conditions: any CYP isoenzyme tested to date; cited from earlier work
[4] = Plasma pharmacokinetics of LDX, d-amphetamine, VEN and ODV; conditions: mean (SD), day 15
[5] = Bioequivalence test; conditions: for AUCτ test/reference ratio [90 % CI] / Cmax test/reference ratio [90 % CI]: LDX + VXR Day 30 vs VXR alone Day 15, Treatment Arm B; for AUC / Cmax: human, in vivo
[6] = system: CYP2D6; conditions: cited from earlier work
[7] = system: CYP2D6; test: In vivo CYP2D6 interaction, VXR as CYP2D6 substrate coadministered with LDX; conditions: inferred from VEN increase and ODV decrease with LDX + VXR coadministration
[8] = treatment arms combined, LDX alone n = 40 and VXR alone n = 37 during dose titration periods, LDX + VXR n = 67

Structure (SMILES): CS(=O)(=O)O.CS(=O)(=O)O.C[C@@H](Cc1ccccc1)NC(=O)[C@@H](N)CCCCN [LDX, Lisdexamfetamine dimesylate]
- Time to resolution of serious AE (presyncope) ([1]; one participant, LDX 30 mg/day): ≤ 10 min
- Any TEAE [1, 8]: 33 (82.5) n (%)
- TEAE Anorexia [1, 8]: 12 (30.0) n (%)
- TEAE Anxiety [1, 8]: 5 (12.5) n (%)
- TEAE Back pain [1, 8]: 2 (5.0) n (%)
- TEAE Chest pain [1, 8]: 3 (7.5) n (%)
- TEAE Constipation [1, 8]: 3 (7.5) n (%)
- TEAE Diarrhoea [1, 8]: 2 (5.0) n (%)
- TEAE Dizziness [1, 8]: 3 (7.5) n (%)
- TEAE Dry mouth [1, 8]: 10 (25.0) n (%)
- TEAE Dyspnoea [1, 8]: 2 (5.0) n (%)
- TEAE Epistaxis [1, 8]: 0 (0.0) n (%)
- TEAE Euphoric mood [1, 8]: 3 (7.5) n (%)
- TEAE Headache [1, 8]: 7 (17.5) n (%)
- TEAE Insomnia [1, 8]: 7 (17.5) n (%)
- TEAE Libido decreased [1, 8]: 0 (0.0) n (%)
- TEAE Nausea [1, 8]: 6 (15.0) n (%)
- TEAE Palpitations [1, 8]: 8 (20.0) n (%)
- TEAE Somnolence [1, 8]: 7 (17.5) n (%)
- TEAE Stomach discomfort [1, 8]: 2 (5.0) n (%)
- TEAE Testicular pain [1, 8]: 0 (0.0) n (%)
- TEAE Urinary hesitation [1, 8]: 0 (0.0) n (%)
- TEAE Vision blurred [1, 8]: 2 (5.0) n (%)
- Maximum mean increase in DBP [2]: ~6 mmHg
- Maximum mean increase in SBP [2]: ~7 mmHg
- Maximum mean increase in pulse rate [2]: approximately 13 beats/min
- Inhibition of CYP isoenzymes [3]: does not inhibit
- AUCτ ([4]; after LDX alone 70 mg/day): 65.5 (44.0) ng·h/mL
- Cmax ([4]; after LDX alone 70 mg/day): 49.1 (32.25) ng/mL
- tmax ([4]; after LDX alone 70 mg/day): 1.1 (0.3) h
- t½ ([4]; after LDX alone 70 mg/day): 0.4 (0.1) h

Structure (SMILES): CN(C)CC(c1ccc(O)cc1)C1(O)CCCCC1 (centres unmarked) [ODV, O-desmethylvenlafaxine]
- AUCτ test/reference ratio [90 % CI] [5]: 0.83 [0.71, 0.96] and 0.826 [0.713, 0.956]
- Cmax test/reference ratio [90 % CI] [5]: 0.907 [0.777, 1.058]
- AUC ([5]; 225 mg/day): 8080 ng·h/mL
- Cmax ([5]; 225 mg/day): 392 ng/mL

Structure (SMILES): COc1ccc(C(CN(C)C)C2(O)CCCCC2)cc1 (centres unmarked) [VEN, Venlafaxine]
- AUCτ test/reference ratio [90 % CI] [5]: 1.13 [0.88, 1.45] and 1.129 [0.88, 1.45]
- Cmax test/reference ratio [90 % CI] [5]: 1.10 [0.88, 1.38] and 1.103 [0.881, 1.38]
- Geometric least squares mean Cmax ([5]; VXR alone, Day 15, Treatment Arm B): 180.7 ng/mL
- AUC ([5]; 225 mg/day): 2410 ng·h/mL
- tmax ([4]; after VXR alone 225 mg/day): 6.4 (0.8) h

Structure (SMILES): C[C@H](N)Cc1ccccc1 [d-Amphetamine, dextroamphetamine]
- Inhibition of CYP2D6 activity [6]: weakly inhibits
- Inhibition of CYP2D6 activity, from current pharmacokinetic findings [7]: weak inhibitor
- AUC ([5]; 70 mg/day): 1110 ng·h/mL
- Cmax ([5]; 70 mg/day): 85.9 ng/mL
